# Assay results as given in US20220288069A1, “INHIBITORS OF TYROSINE KINASE” (BridGene Biosciences, Inc., priority 2019, published 2022).
# How the values were obtained:
# [1] = biological target: T1, FLT3 (Homo sapiens, UniProt P36888); experiment: Caliper mobility shift kinase inhibition assay, FLT3; type: biochemical; conditions: recombinant kinase; enzyme 0.1 nM, ATP 95 μM, incubation 3 hr
# T1 construct: purchased ThermoFisher PV3182
# T1 sequence (P36888 27-993): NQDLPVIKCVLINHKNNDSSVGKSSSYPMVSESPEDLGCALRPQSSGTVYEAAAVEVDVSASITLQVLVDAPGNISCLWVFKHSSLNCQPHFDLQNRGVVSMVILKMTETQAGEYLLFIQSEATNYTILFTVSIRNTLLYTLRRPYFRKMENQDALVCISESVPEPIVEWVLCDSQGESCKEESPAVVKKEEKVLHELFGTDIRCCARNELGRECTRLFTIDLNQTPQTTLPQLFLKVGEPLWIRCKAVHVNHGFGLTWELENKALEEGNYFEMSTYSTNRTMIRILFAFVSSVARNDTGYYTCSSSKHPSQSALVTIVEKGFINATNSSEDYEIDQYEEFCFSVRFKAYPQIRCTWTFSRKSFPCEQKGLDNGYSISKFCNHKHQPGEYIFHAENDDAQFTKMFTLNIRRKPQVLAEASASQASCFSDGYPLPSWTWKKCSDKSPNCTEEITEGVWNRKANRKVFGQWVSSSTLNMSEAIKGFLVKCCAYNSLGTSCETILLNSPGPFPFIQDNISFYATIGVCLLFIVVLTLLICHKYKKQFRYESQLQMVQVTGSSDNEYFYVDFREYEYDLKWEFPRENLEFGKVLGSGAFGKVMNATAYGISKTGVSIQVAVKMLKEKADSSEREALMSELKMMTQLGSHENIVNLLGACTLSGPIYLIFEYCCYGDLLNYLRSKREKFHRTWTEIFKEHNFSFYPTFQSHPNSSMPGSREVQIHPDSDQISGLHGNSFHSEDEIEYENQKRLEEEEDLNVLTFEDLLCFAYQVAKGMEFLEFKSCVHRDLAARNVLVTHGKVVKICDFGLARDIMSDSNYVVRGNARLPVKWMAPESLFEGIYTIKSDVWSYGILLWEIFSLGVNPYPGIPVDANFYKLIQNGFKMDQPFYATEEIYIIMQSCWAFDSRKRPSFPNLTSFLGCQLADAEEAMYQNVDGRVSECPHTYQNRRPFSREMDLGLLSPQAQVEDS
# Description: Compounds' inhibition of recombinant kinases (FGR, FLT3, FMS, KIT, or RON) was measured using Caliper mobility shift assay, which is based on the difference in capillary electrophoresis mobility of a fluorescent-tagged peptide as a result of a phosphorylation by the kinase under study. Reactions were started by the addition of various concentrations of a compound (originally in DMSO solution) to a kinase solution in assay buffer followed by addition of a mixture of ATP and a fluorescent-tagged peptide substrate in assay buffer. Concentrations of the enzyme, ATP and the peptide were pre-optimized so that 15% substrate conversion to ensure initial velocity measurements. After incubation for 3 hours at room temperature, the kinase reaction was quenched by the addition of a concentrated EDTA solution before analysis on a LabChip EZ Reader II to yield percentage inhibition by comparing to the DMSO control.
# Table 2 below summarizes the assay conditions for the characterization of the kinase inhibition properties of the disclosed compounds.
# [2] = system: THP−1; experiment: Cell viability assay (CellTiter-Glo), THP-1; type: cell-based; conditions: THP-1 cells, 72 hr; for GI50: Homo sapiens
# Description: (§1) Cell viability assay was performed based on the following brief procedures. Cells were plated at the density of 5K/well with volume of […] in 96-well white plate and clear bottom plates. 20 μL of veh. or compound was added at proper concentration to the well. The final volume is 200 μL, with final conc. of DMSO32 0.1%, 11 points, triplicates. The cells were then treated at 37° C. in the TC incubator for 72 hr. Equal volume (200 μL) of CellTiter-Glo reagent (Promega) was added to the well and protect from light at room temperature for 15 min. The chemiluminicent was measured with EnSight (Perkin Elmer). GraphPad Prism non-linear regression, Log[inhibitor] response with four parameters were used to calculate GI50.
# [3] = system: Kasumi−1; experiment: Cell viability assay (CellTiter-Glo), Kasumi-1; type: cell-based; conditions: Homo sapiens, Kasumi-1 cells, 72 hr
# Description: as §1
# [4] = system: MV4−11; experiment: Cell viability assay (CellTiter-Glo), MV4-11; type: cell-based; conditions: Homo sapiens, MV4-11 cells, 72 hr
# Description: as §1
SMILES,IC50 [1] [nM],GI50 [2] [nM],GI50 [3] [nM],GI50 [4] [nM],THP−1 GI50 [2]
Cc1cc(Nc2cc(NCCNC(=O)[C@@H]3COCCN3C(=O)/C=C/CN(C)C)nc(Nc3ccc(CC#N)cc3)n2)n[nH]1 [Compound 2],< 10,≥ 1000,100 to 1000,10 to 100,
"C=CC(=O)N(C)[C@@H](C)C(=O)NCCNc1cc(Nc2ncc(C3CCC3)s2)nc(CC)n1 [Compound 6, (2S)—N-[2-[[6-[(5-cyclobutylthiazol-2-yl)amino]-2-ethyl-pyrimidin-4-yl]amino]ethyl]-2-[methyl(prop-2-enoyl)amino]propanamide]",< 10,10 to 100,< 10,< 10,
"C=CC(=O)N(C)[C@@H](C)C(=O)NCCOc1cc(Nc2ncc(C3CCC3)s2)nc(CC)n1 [Compound 7, (2S)—N-[2-[6-[(5-cyclobutylthiazol-2-yl)amino]-2-ethyl-pyrimidin-4-yl]oxyethyl]-2-[methyl(prop-2-enoyl)amino]propanamide]",< 10,100 to 1000,< 10,< 10,
"CCc1nc(NCCNC(=O)[C@H](C)N(C)C(=O)/C=C/CN(C)C)cc(Nc2ncc(C3CCC3)s2)n1 [Compound 8, (E)-N-[(1S)-2-[2-[[6-[(5-cyclobutylthiazol-2-yl)amino]-2-ethyl-pyrimidin-4-yl]amino]ethylamino]-1-methyl-2-oxo-ethyl]-4-(dimethylamino)-N-methyl-but-2-enamide]",< 10,≥ 1000,100 to 1000,< 10,
Cc1nc(NCCNC(=O)[C@H](C)N(C)C(=O)/C=C/CN(C)C)cc(Nc2ncc(-c3ccccc3)s2)n1 [Compound 11],< 10,≥ 1000,< 10,< 10,
"C=CC(=O)N1CCOC[C@H]1C(=O)NCCOc1cc(Nc2ncc(-c3ccccc3)s2)nc(C)n1 [Compound 14, (3S)—N-[2-[2-methyl-6-[(5-phenylthiazol-2-yl)amino]pyrimidin-4-yl]oxyethyl]-4-prop-2-enoyl-morpholine-3-carboxamide]",< 10,,,,
"C=CC(=O)N1CCN(C)C[C@H]1C(=O)NCCOc1cc(Nc2ncc(-c3ccccc3)s2)nc(C)n1 [Compound 15, (2S)-4-methyl-N-[2-[2-methyl-6-[(5-phenylthiazol-2-yl)amino]pyrimidin-4-yl]oxyethyl]-1-prop-2-enoyl-piperazine-2-carboxamide]",< 10,,,,
"C/C=C/C(=O)N(C)[C@@H](C)C(=O)NCCOc1cc(Nc2ncc(-c3ccccc3)s2)nc(C)n1 [Compound 16, N-methyl-N-[(1S)-1-methyl-2-[2-[2-methyl-6-[(5-phenylthiazol-2-yl)amino]pyrimidin-4-yl]oxyethylamino]-2-oxoethyl]but-2-enamide]",10 to 100,,,,
"C=CC(=O)N(C)[C@@H](C)C(=O)NCCN(C)c1cc(Nc2ncc(-c3ccncc3)s2)nc(C)n1 [Compound 19, (2S)—N-[2-[methyl-[2-methyl-6-[[5-(4-pyridyl)thiazol-2-yl]amino]pyrimidin-4-yl]amino]ethyl]-2-[methyl(prop-2-enoyl)amino]propanamide]",< 10,,,,
"C=CC(=O)N(C)[C@@H](C)C(=O)N[C@H]1CCN(c2cc(Nc3ncc(-c4ccncc4)s3)nc(C)n2)C1 [Compound 20, (2S)-2-[methyl(prop-2-enoyl)amino]-N-[(3S)-1-[2-methyl-6-[[5-(4-pyridyl)thiazol-2-yl]amino]pyrimidin-4-yl]pyrrolidin-3-yl]propanamide]",< 10,,,,
"C=CC(=O)N1CCC[C@H]1C(=O)N[C@H]1CCN(c2cc(Nc3ncc(-c4ccncc4)s3)nc(C)n2)C1 [Compound 21, (2S)—N-[(3S)-1-[2-methyl-6-[[5-(4-pyridyl)thiazol-2-yl]amino]pyrimidin-4-yl]pyrrolidin-3-yl]-1-prop-2-enoyl-pyrrolidine-2-carboxamide]",< 10,,,,
"C=CC(=O)N1CCC[C@H]1C(=O)NCCNc1cc(Nc2ncc(-c3ccncc3)s2)nc(C)n1 [Compound 22, (2S)—N-[2-[[2-methyl-6-[[5-(4-pyridyl)thiazol-2-yl]amino]pyrimidin-4-yl]amino]ethyl]-1-prop-2-enoyl-pyrrolidine-2-carboxamide]",< 10,,,,
"C=CC(=O)N(C)[C@@H](C)C(=O)NCCNC(=O)c1c[nH]c(/C=C2\C(=O)Nc3ccc(F)cc32)c1C [Compound 23, 5-[(5-fluoro-2-oxo-indolin-3-ylidene)methyl]-4-methyl-N-[2-[[(2S)-2-[methyl(prop-2-enoyl)amino]propanoyl]amino]ethyl]-1H-pyrrole-3-carboxamide]",< 10,≥ 1000,,< 10,
"CCC(=O)N(C)[C@@H](C)C(=O)NCCNC(=O)c1c[nH]c(/C=C2\C(=O)Nc3ccc(F)cc32)c1C [Compound 24, 5-[(5-fluoro-2-oxo-indolin-3-ylidene)methyl]-4-methyl-N-[2-[[(2S)-2-[methyl(propanoyl)amino]propanoyl]amino]ethyl]-1H-pyrrole-3-carboxamide]",10 to 100,,,10 to 100,=
"CC#CC(=O)N(C)[C@@H](C)C(=O)NCCNC(=O)c1c[nH]c(/C=C2\C(=O)Nc3ccc(F)cc32)c1C [Compound 25, N-[2-[[(2S)-2-[but-2-ynoyl(methyl)amino]propanoyl]amino]ethyl]-5-[(5-fluoro-2-oxo-indolin-3-ylidene)methyl]-4-methyl-1H-pyrrole-3-carboxamide]",< 10,≥ 1000,,< 10,
"C=CC(=O)N(C)[C@@H](C)C(=O)NC[C@H]1CCc2c([nH]c(/C=C3\C(=O)Nc4ccc(F)cc43)c2C)C1 [Compound 27, (2S)—N-[[(6S)-2-[(5-fluoro-2-oxo-indolin-3-ylidene)methyl]-3-methyl-4,5,6,7-tetrahydro-1H-indol-6-yl]methyl]-2-[methyl(prop-2-enoyl)amino]propanamide]",< 10,≥ 1000,,< 10,
"C=CC(=O)N(C)[C@@H](C)C(=O)NC[C@@H]1CCc2c([nH]c(/C=C3\C(=O)Nc4ccc(F)cc43)c2C)C1 [Compound 28, (2S)—N-[[(6R)-2-[(5-fluoro-2-oxo-indolin-3-ylidene)methyl]-3-methyl-4,5,6,7-tetrahydro-1H-indol-6-yl]methyl]-2-[methyl(prop-2-enoyl)amino]propanamide]",< 10,≥ 1000,,< 10,
"Cc1c(/C=C2\C(=O)Nc3ccc(F)cc32)[nH]c2c1CC[C@H](CNC(=O)[C@H](C)N(C)C(=O)/C=C/CN(C)C)C2 [Compound 29, (E)-4-(dimethylamino)-N-[(1S)-2-[[(6S)-2-[(Z)-(5-fluoro-2-oxo-indolin-3-ylidene)methyl]-3-methyl-4,5,6,7-tetrahydro-1H-indol-6-yl]methylamino]-1-methyl-2-oxo-ethyl]-N-methyl-but-2-enamide]",< 10,≥ 1000,,< 10,
"Cc1c(/C=C2\C(=O)Nc3ccc(F)cc32)[nH]c2c1CC[C@@H](CNC(=O)[C@H](C)N(C)C(=O)/C=C/CN(C)C)C2 [Compound 30, (E)-4-(dimethylamino)-N-[(1S)-2-[[(6R)-2-[(Z)-(5-fluoro-2-oxo-indolin-3-ylidene)methyl]-3-methyl-4,5,6,7-tetrahydro-1H-indol-6-yl]methylamino]-1-methyl-2-oxo-ethyl]-N-methyl-but-2-enamide]",< 10,≥ 1000,,< 10,
